From ChEMBL document CHEMBL4616676, “Synthesis and Biological Activity of 2,22-Dimethylene Analogues of 19-Norcalcitriol and Related Compounds” (J Med Chem, 2020)
Calls of active or inactive are those of the source. The calls are words filed in the database; no cut-off is given here.

How the values were obtained:
[1] = molecular target: T1, Vitamin D3 receptor (Rattus norvegicus) (UniProt P13053); test: Potency index, ratio of Ki for 1-alpha,25-(OH)2D3 to Ki for test compound for displacement of [3H]1-alpha,25-(OH)2D3 from rat recombinant full length VDR
T1 sequence (whole entry): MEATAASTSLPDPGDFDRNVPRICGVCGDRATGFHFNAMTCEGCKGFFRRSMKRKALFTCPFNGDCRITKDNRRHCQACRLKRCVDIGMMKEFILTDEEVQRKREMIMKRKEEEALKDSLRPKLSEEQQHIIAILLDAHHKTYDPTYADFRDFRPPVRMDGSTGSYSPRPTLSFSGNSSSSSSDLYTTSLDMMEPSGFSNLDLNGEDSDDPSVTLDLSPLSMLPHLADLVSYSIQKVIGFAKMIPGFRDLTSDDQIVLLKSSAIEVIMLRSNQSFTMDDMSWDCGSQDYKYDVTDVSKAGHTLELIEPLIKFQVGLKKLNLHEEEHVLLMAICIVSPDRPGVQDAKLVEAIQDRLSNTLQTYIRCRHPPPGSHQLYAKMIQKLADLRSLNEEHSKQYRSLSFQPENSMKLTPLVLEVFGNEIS

[2] = molecular target: T1, Vitamin D3 receptor (Rattus norvegicus); test: Potency index, ratio of ED50 for 1-alpha,25-(OH)2D3 to ED50 for test compound for agonist activity at rat recombinant full length VDR expressed in rat ROS 17/2.8 cells transfected with 24-hydroxylase gene promoter assessed as transcriptional activation after 16 hrs by luciferase reporter gene assay; type: cell-based
[3] = molecular target: T2, Vitamin D3 receptor (Homo sapiens) (UniProt P11473); test: Potency index, ratio of ED50 for 1-alpha,25-(OH)2D3 to ED50 for test compound for agonist activity at VDR in human HL60 cells assessed as induction of cell differentiation of promyelocytes to monocytes after 4 days by NBT reduction assay; type: cell-based; conditions: HL-60
T2 sequence (whole entry): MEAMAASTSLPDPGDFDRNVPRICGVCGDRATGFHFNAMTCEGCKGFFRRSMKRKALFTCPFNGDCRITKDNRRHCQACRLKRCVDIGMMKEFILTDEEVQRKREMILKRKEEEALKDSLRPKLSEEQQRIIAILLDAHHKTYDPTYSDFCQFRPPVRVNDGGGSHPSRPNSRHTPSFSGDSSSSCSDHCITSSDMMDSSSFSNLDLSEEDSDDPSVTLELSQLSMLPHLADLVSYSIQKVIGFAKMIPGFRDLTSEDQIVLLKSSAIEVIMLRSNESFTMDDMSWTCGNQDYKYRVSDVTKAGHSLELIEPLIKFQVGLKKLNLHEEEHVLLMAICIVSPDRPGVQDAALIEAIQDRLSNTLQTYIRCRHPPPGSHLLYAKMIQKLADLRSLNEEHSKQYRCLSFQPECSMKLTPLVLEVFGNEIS

[4] = tested on: Rattus norvegicus; test: Induction of intestinal calcium transport in vitamin D-deficient Sprague-Dawley rat assessed as ratio of serosal to mucosal calcium level at 780 pmol, ip administered as 4 consecutive daily doses measured after 24 hrs post last dose by gut sac assay relative to 1alpha,25-(OH)2D3; type: functional, organism-based
[5] = tested on: Rattus norvegicus; test: Induction of bone calcium mobilization in vitamin D-deficient Sprague-Dawley rat assessed as serum calcium level at 87 pmol, ip administered as 4 consecutive daily doses measured after 24 hrs post last dose by spectrometry relative to 1alpha,25-(OH)2D3; type: functional, organism-based
[6] = tested on: Rattus norvegicus; test: Induction of bone calcium mobilization in vitamin D-deficient Sprague-Dawley rat assessed as serum calcium level at 780 pmol, ip administered as 4 consecutive daily doses measured after 24 hrs post last dose by spectrometry relative to 1alpha,25-(OH)2D3; type: functional, organism-based
[7] = tested on: Rattus norvegicus; test: Induction of intestinal calcium transport in vitamin D-deficient Sprague-Dawley rat assessed as ratio of serosal to mucosal calcium level at 87 pmol, ip administered as 4 consecutive daily doses measured after 24 hrs post last dose by gut sac assay relative to 1alpha,25-(OH)2D3; type: functional, organism-based

Row | Structure (SMILES) | Ratio Ki [1] | Ratio ED50 [2] | Ratio ED50 [3] | Activity [4] | Activity [5] | Activity [6] | Activity [7]
1 | C=C1[C@H](O)CC(=C/C=C2\CCC[C@]3(C)[C@@H]([C@@H](C)C(=C)CCC4(O)CCCC4)CC[C@@H]23)C[C@H]1O | 1 | 20 | 29 | Active | Active | Active | Active
2 | C=C1[C@H](O)CC(=C/C=C2\CCC[C@]3(C)[C@@H]([C@@H](C)C(=C)CCCC(O)(CC)CC)CC[C@@H]23)C[C@H]1O | 0.5 | 6.7 | 50 | Active | Active | Active | Active
3 | C=C1[C@H](O)CC(=C/C=C2\CCC[C@]3(C)[C@@H]([C@@H](C)C(=C)CCC(O)(CC)CC)CC[C@@H]23)C[C@H]1O | 1 | 6.7 | 10 | Active | Active | Active | Active
4 | C=C1[C@H](O)CC(=C/C=C2\CCC[C@]3(C)[C@@H]([C@@H](C)C(=C)CCC(C)C)CC[C@@H]23)C[C@H]1O | 0.01 | 0.05 | 0.1 | Active | Active | Active | Active

Further lines, with some results ahead:

Row | Ratio Ki [1] | Ratio ED50 [2] | Ratio ED50 [3] | Structure (SMILES) | Activity [4] | Activity [5] | Activity [6] | Activity [7]
5 | 1 | 29 | 25 | C=C1[C@H](O)CC(=C/C=C2\CCC[C@]3(C)[C@@H]([C@@H](C)CCCC(C)(C)O)CC[C@@H]23)C[C@H]1O | – | – | – | –
6 | 1 | 20 | 50 | C=C1[C@H](O)CC(=C/C=C2\CCC[C@]3(C)[C@@H]([C@@H](C)C(=C)CCCC(C)(C)O)CC[C@@H]23)C[C@H]1O | Active | Active | Active | Active
7 | 0.5 | 2.5 | 4 | C=C1[C@H](O)CC(=C/C=C2\CCC[C@]3(C)[C@@H]([C@@H](C)C(=C)CCC(C)(C)O)CC[C@@H]23)C[C@H]1O | Active | Active | Active | Active
